Patent publication US20230405081A1, “PHARMACEUTICAL COMPOSITION COMPRISING A PEPTIDE AS ACTIVE INGREDIENT” (INTRACT PHARMA LIMITED, priority 2020, published 2023)

Assay: in vitro
Details: human, real gastrointestinal fluid or homogenate; for remaining at 1 h, 1 mg/ml: pH 7, % Peptide remaining at 1 hours (T = 1 h)
Protocol: A human colonic model based on a mixed faecal inoculum was used to mimic the luminal environment of the human large intestine. An anaerobic workstation (Electrotek 500TG™ workstation, Electrotek, West Yorkshire, UK) maintained at 37° C. and 70% relative air humidity was used to set up the model. The fecal material was transferred in the anaerobic workstation and diluted with freshly prepared basal medium to obtain 20% w/w slurry by homogenization. The basal media provides nutrients and growth factors to the microbiota allowing viability for up to 24 hours. The homogenized bacterial media was sieved through an open mesh fabric (SefarNitex™, pore size 350 μm) to remove any nonhomogeneous fibrous material. The pH was maintained at approximately 7 to mimic the colonic luminal pH of the human.
Desmopressin stock solution was prepared in HPLC water at 2 mg/ml without or with single L-amino acids, combinations of L-amino acids or di-peptides at 10 and/or 20 and/or 40 mM concentrations and added to […] human faecal slurry; […] Samples were withdrawn at appropriate time points and added to HPLC grade methanol in a ratio of 1:1. The samples were centrifuged at […] for 10 minutes at 4° C. and the supernatant was analysed by Reversed Phase-HPLC (RP-HPLC).
Sample analysis was performed using a high performance liquid chromatography (HPLC) system (Agilent Technologies, 1260 Infinity II Series™) equipped with a pump (model G7111A), autosampler (model G7129A) and a diode-array UV detector (model G7114A). A 150×4.6-mm, 5 μm, 100 Å (Phenomenex, UK) reversed phase chromatography column was used for sample separation using 0.1% TFA in water (A) and acetonitrile (B) as the mobile phase for elution, at a flow rate of 1 ml/min. The gradient was set up with 17% of B at 0-4 minutes, 30% of B at 20 minutes and 17% of B at 20.01-23 minutes. The analysis was operated at room temperature and UV detection wavelength was set at 220 nm. Each sample was run for 23 minutes to allow complete elution of the sample without overlapping matrix interferences.
Colon stability was assessed using the Human Colon model with the amount of intact desmopressin remaining at each time point assessed by RP-HPLC as described in the Methods section.
Colon stability was assessed using the Human Colon model with the amount of intact oxytocin, oxytocin with 1 D-amino acid and linear oxytocin remaining at each time point assessed by RP-HPLC as described in the Methods section.

Row | % Desmopressin remaining after 1 hours (T = 1 h) (1 h, 0.1 mg/ml, pH 7) | remaining at 1 h, 0.1 mg/ml (pH 7, % Desmopressin remaining after 1 hours (T = 1 h)) | remaining at 0.5 h, 1 mg/ml (pH 7, % Peptide remaining at 0.5 hours (T = 0.5 h)) | remaining at 1 h, 1 mg/ml | SMILES
1 | 22.6 ± 2.7% | 28.8 ± 1.2% | – | – | NC(=O)CC[C@@H]1NC(=O)[C@H](Cc2ccccc2)NC(=O)[C@H](Cc2ccc(O)cc2)NC(=O)CCSSC[C@@H](C(=O)N2CCC[C@H]2C(=O)N[C@H](CCCN=C(N)N)C(=O)NCC(N)=O)NC(=O)[C@H](CC(N)=O)NC1=O [Desmopressin]
2 | – | – | 0% | 0% | CC[C@H](C)[C@H](NC(=O)[C@H](Cc1ccc(O)cc1)NC(=O)[C@@H](N)CS)C(=O)N[C@@H](CCC(N)=O)C(=O)N[C@@H](CC(N)=O)C(=O)N[C@@H](CS)C(=O)N1CCC[C@H]1C(=O)N[C@H](CC(C)C)C(=O)NCC(N)=O [Linear Oxytocin with 1 D-amino acid]
3 | – | – | – | 6.6 ± 0.25% | CC[C@H](C)[C@@H]1NC(=O)[C@H](Cc2ccc(O)cc2)NC(=O)[C@@H](N)CSSC[C@@H](C(=O)N2CCC[C@H]2C(=O)N[C@@H](CC(C)C)C(=O)NCC(N)=O)NC(=O)[C@H](CC(N)=O)NC(=O)[C@H](CCC(N)=O)NC1=O [Oxytocin]
